Source: publication PMC9065678, “BI 1015550 is a PDE4B Inhibitor and a Clinical Drug Candidate for the Oral Treatment of Idiopathic Pulmonary Fibrosis” (Frontiers in Pharmacology, 2022)

Legend:
[1] = test system: LPS-stimulated IL-6 release; test: LPS-stimulated IL-6 release in rat whole blood; format: cell-based; details: high concentrations
Protocol: Heparinized whole blood was collected from the Aorta abdominalis of WI (Han) male rats (Charles River Laboratories, Sulzfeld, Germany) and from healthy male human donors, and treated with 1 µL (rat) or 2.5 µL (human) of BI 1015550 or vehicle [final DMSO concentration 0.5% (v/v)]. Final assay volumes were 200 μL (rat) and 500 μL (human). After incubation for 30 min at 37°C, 95% humidity, and 5% CO2, cultures were treated with LPS [final concentration 10 µg/mL (rat), 0.1 µg/mL (human)] or saline. After 7 h, plates were centrifuged at 3.200 × g at 4°C for 10 min and plasma was used for cytokine measurement. Meso Scale Discovery (MSD) (Rockville, MD, United States) rat and human pro-inflammatory panels were used for detection of TNF-α and IL-6 in rat plasma [diluted 1:2 (v/v)]) and human plasma [negative control undiluted, other samples diluted 1:200 (v/v)] according to the manufacturer’s instructions.

[2] = test system: LPS-induced TNF-α release in whole blood ex vivo; test: LPS-induced TNF-α release in whole blood ex vivo in mice; set-up: species or system mouse
Protocol: BI 1015550 was suspended in H2O plus three equivalents’ HCl (i.e. 66 µL HCl per mg of drug substance) to concentrations of […]. Female NMRI mice from Charles River (25–30 g) were used. Either vehicle (H2O plus three equivalents’ HCl) or BI 1015550 was administered orally (by gavage) in a volume of 10 mL/kg body weight resulting in final doses of 3.0, 1.0, 0.1, and 0.01 mg/kg body weight. 2 h after administration, the animals were anesthetized and blood was drawn by retroorbital puncture with heparinized capillaries before sacrifice by cervical dislocation. Blood was collected in Lithium-Heparin Microvettes® for anticoagulation. 100 µL of whole blood was pipetted into an Eppendorf tube containing either LPS solution (final concentration 900 ng/mL) or solvent. Subsequently, the samples were placed for 4 h in an incubator at 37°C, […], and 95% humidity before plasma was prepared by a two-step centrifugation at 10.840 × g over 10 min at 4°C. TNF-α concentrations in the plasma samples were determined using a commercially available TNF-α ELISA kit (BD OptEIA™ Mouse TNF ELISA Set from Becton Dickinson) according to the manufacturer’s instructions.

[3] = test system: LPS-induced TNF-α release; test: LPS-induced TNF-α release in human PBMCs; format: cell-based; details: 100 ng/mL LPS for 4 h
Protocol: Blood was donated by internal donors at the Center for Occupational Health at Boehringer Ingelheim in Biberach an der Riss, Germany; the donors provided signed informed consent that allows use for scientific purposes. All research was performed in accordance with the principles stated in the Declaration of Helsinki. Ethical approval was provided by the Federal State Medical Association of Baden-Württemberg, reference no. F-2016–121. For preparation of peripheral blood mononuclear cells (PBMCs), 200 mL freshly drawn human blood from healthy donors was mixed with 50 mL acid-citrate-dextrose solution (38 mmol/L citric acid, 75 mmol/L tri-sodium citrate and 121 mmol/L glucose) and 50 mL Hanks buffered saline solution (Thermo Fisher Scientific, Carlsbad, CA, United States), overlaid on Ficoll and centrifuged for 30 min at 300 x g. PBMCs were diluted in RPMI-1640 medium (Thermo Fisher Scientific) containing 6% (v/v) autologous plasma to a concentration of 5 × 10^6 cells/mL. […] Supernatants were taken and cytokines measured by enzyme-linked immunosorbent assay (ELISA; Becton Dickinson, Franklin Lakes, NJ, United States).

PDE1C = target: T1, PDE1C (Homo sapiens, UniProt Q14123); test: Recombinant PDE activity, scintillation proximity assay: PDE1C; format: biochemical
T1 construct: the full-length open reading frames of PDE1C; made in house; host or cells: SF9 insect cells (baculovirus, Bac-To-Bac, pFastbac)
T1 sequence (Q14123 whole entry): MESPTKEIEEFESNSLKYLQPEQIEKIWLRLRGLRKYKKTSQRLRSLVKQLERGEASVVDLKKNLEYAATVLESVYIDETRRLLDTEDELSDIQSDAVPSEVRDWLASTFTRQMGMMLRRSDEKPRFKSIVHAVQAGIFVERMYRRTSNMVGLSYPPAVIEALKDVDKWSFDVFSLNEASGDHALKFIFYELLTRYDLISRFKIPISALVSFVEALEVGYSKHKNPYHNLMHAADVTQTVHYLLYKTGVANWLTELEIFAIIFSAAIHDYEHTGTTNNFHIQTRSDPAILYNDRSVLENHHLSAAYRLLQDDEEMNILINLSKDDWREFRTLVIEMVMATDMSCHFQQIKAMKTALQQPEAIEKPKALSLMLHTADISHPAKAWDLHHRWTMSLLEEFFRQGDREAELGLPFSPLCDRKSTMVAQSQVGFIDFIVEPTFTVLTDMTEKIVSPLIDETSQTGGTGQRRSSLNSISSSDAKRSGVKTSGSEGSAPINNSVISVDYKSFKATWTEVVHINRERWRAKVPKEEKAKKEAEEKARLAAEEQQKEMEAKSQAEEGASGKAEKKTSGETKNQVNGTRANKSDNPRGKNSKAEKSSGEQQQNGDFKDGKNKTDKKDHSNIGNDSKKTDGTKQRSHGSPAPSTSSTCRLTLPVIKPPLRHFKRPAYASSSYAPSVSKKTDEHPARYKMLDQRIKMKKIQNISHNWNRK
Source text: For the preparation of human recombinant PDEs of interest, the Bac-To-Bac baculoviral expression system from Invitrogen (Carlsbad, CA, United States) was used according to the instruction manual. In short, the full-length open reading frames of PDE1C (National Center for Biotechnology Information Gene-Ref-Seq identifier NG_051183), PDE3A (NG_030033), PDE4A (NG_029594, AA 156–886), PDE4C (NG_029629), PDE7A (NG_029614), and PDE9A (NG_047067) were cloned into the plasmid vector pFastbac. For PDE4B and PDE4D, active site fragments were used (PDE4B NG_029038: AA 152–484, PDE4D NG_027957, AA 79–438). The plasmids were transformed into DH10Bac bacteria, SF9 insect cells were transfected with the bacmid DNA, and the resulting baculoviruses were stored and used for further rounds of infections. […] The protein content was measured and an equal volume of 87% (v/v) glycerol was added prior to freezing at −20°C. […] The reaction was stopped by addition of 50 µL of yttrium silicate scintillation proximity assay beads (17.8 mg/mL, 18 mM zinc sulfate in H2O) and the amount of produced [^3H]AMP/[^3H]GMP associated was determined using a Wallac Microbeta scintillation counter. […]

IC50 [3]: 0.035 µM | IC50 (PDE1C; substrate cAMP): 46 µM | IC50 (PDE1C; substrate cGMP): 85 µM
SMILES: [O-][S+]1CCc2nc(N3CCC(c4ncc(Cl)cn4)CC3)nc(NC3(CO)CCC3)c21 (stereo not drawn) [BI 1015550]
Increase of IL-6 compared with LPS-treated samples without PDE4 inhibitor [1]: fourfold | TNF-α concentration in plasma, inhibition in % given as negative number ([2]; 0.01 mg/kg p.o.): −38% | TNF-α concentration in plasma, inhibition in % given as negative number ([2]; 0.1 mg/kg p.o.): −50% | TNF-α concentration in plasma, inhibition in % given as negative number ([2]; 1.0 mg/kg p.o.): −83% | Inhibition of TNF-α ([2]; 3 mg/kg oral, initial experiment, data not shown): 93% | ED50 of LPS-induced TNF-α release ([2]; oral, blood taken 2 h after administration, LPS 4 h): 0.04 mg/kg
